Test results reported in US20210395327A1, “Growth Hormone-Releasing Hormone Antagonists and Uses Thereof” (United States Government As Represented By The Department …, priority 2019, published 2021).
Non-standard residues stand in square brackets, D forms with d. Residues, ends and D or L forms follow the SMILES beside them. *: point of attachment. Phenylacetyl(2,3,4,5,6-F5) = O=C(Cc1c(F)c(F)c(F)c(F)c1F)*; Phe(F5) = N[C@@H](Cc1c(F)c(F)c(F)c(F)c1F)C(=O)O; Phe(4-Cl) = N[C@@H](Cc1ccc(Cl)cc1)C(=O)O; hArg = N=C(N)NCCCC[C@H](N)C(=O)O; 12Ado = NCCCCCCCCCCCC(=O)O; Nle = CCCC[C@H](N)C(=O)O; Abu = CC[C@H](N)C(=O)O

Assays:
[1] = system: SK-OV-3 ovarian cancer cells; assay: In vitro cell viability, SK-OV-3; assay type: cell-based, human; conditions: Table 3B; * at 2 μM for 72 H; MIA-602 = 1
Method: (§1) The inhibitory effects of the various synthesized GHRH antagonists were tested in cell proliferation assays in various human cancer cell lines including stomach cancer (KATOIII, N87), colon cancer (HT-29), urothelial cancer (J82, RT4), pancreatic cancer (PANC-1, CFPAC-1), prostatic cancer (PC3), breast cancer (MX-1, HCC1806), ovarian cancer (SK-OV-3, OVCAR-3) and lung cancer (HCC827, H460).
(§2) Cell culture. Human cancer cell lines including pancreatic (PANC-1 and CFPAC-1), lung (HCC827 and H460), stomach (NCI-N87 and KATOIII), urothelial (J82, RT4), prostatic (PC3), breast (MX-1 and HCC 1806), colorectal (HT-29), and ovarian (SK-OV-3 and OVCAR-3) were obtained from the American Type Culture Collection (ATCC) and cultured at 37° C. in a humidified 95% air/5% CO2 atmosphere in the medium recommended by ATCC.
(§3) In vitro cell viability. Cell viability was analyzed as follows: cancer cells including pancreatic (PANC-1 and CFPAC-1), lung (HCC827 and H460), stomach (NCI-N87 and KATOIII), urothelial (J82, RT4), prostatic (PC3) and breast (MX-1 and HCC 1806), colorectal (HT-29) and ovarian (SK-OV-3 and OVCAR-3) were grown on 96 well plates to ˜60% confluence, the cells were starved for 24 h in culture medium containing 0.5% FBS. Cells were then treated with GHRH antagonists MIA602 AVR compounds at concentrations of 1, 2.5 or 5 μM, or vehicle (0.1% DMSO) in quintuplicates for 72 hours. The medium was replaced every 48 hours. Cell viability was measured using CellTiter 96 aqueous one solution kit (Promega). Inhibitory effects of tested AVR compounds in comparison to that of MIA602 are presented as inhibitory potency.
(§4) Inhibitory effects of selected AVR compounds in comparison to that of MIA602 are presented as inhibitory potency (e.g., percentage of inhibition). […] The cell lines tested including lung cancer HCC827 (FIG. 2A), pancreatic cancer CFPAC-1 (FIG. 2B), stomach cancer N87 (FIG. 2C), colon cancer HT-29 (FIG. 2D), breast cancers MX-1 and HCC1806 (FIGS. 2 E, F). […]

[2] = system: pancreatic cancer PANC-1 xenograft; assay: Xenograft tumor growth in nude mice, PANC-1; assay type: in vivo; conditions: Table 4A, Pancreatic Ca PANC-1, 7 weeks; for % Inhibition: vs control
Method: (§5) The peptides' activity was compared with GHRH antagonist MIA-602. All statistical analyzses were performed from comparing GHRA antagonists to non-treated tumor (control).
(§6) Peptides and chemicals. GHRH antagonists MIA-602 and AVR-GHRH antagonists (see Table 2 above) were synthesized by solid phase methods and purified by HPLC. The peptides were dissolved in DMSO and further diluted in 10% 1,2-propanediol. The final concentration of peptides was 50 µg/ml in 10% 1,2-propanediol containing 0.1% of DMSO.
(§7) Cell culture. Human cancer cell lines including pancreatic (PANC-1 and CFPAC-1), lung (HCC827 and H460), stomach (NCI-N87), prostate (PC3), brest (MX-1 and HCC-1806), colorectal (HT-29), and ovarian (SK-OV-3 and OVCAR-3) were obtained from the American Type Culture Collection (ATCC) and cultured at 37° C. in a humidified 95% air/5% CO2 atmosphere in the medium recommended by ATCC.
(§8) Xenograft models of human cancers in nude mice. Female athymic (NCr nu/nu) nude mice, 5- to 6-weeks-old, obtained from the Envigo labs (Tampa, Fla.), were housed in laminar airflow cabinets under pathogen-free conditions with a 12-h light/12-h dark schedule, and were fed autoclaved standard chow and water. To generate mice with xenografted tumors, tumor xenografts were initiated by subcutaneous (s.c.) injection of 107 human cancer cells into female nude mice. After about 4 weeks the resulting tumors were dissected and collected after removing necrosis tissues. The tumors were then cut into particles with size of 3 mm3 and transplanted s.c. by trocar needle into experimental animals. When tumors grew to the size of 50-60 mm3 (by volume), mice were randomized into groups and treated daily for 4-8 weeks by subcutaneous administration of 5 μg of GHRH antagonists MIA-602 or AVR-compounds (2-10 μg as indicated), or vehicle solutions (0.1% DMSO in 10% 1,2-propanediol) respectively. Tumor sizes were measured weekly.
(§9) Statistical analysis. One-way ANOVA followed by Bonferroni comparison were performed. Data are expressed as Mean±SEM. To determine statistical significance between animal groups, two-tailed Student's t-test was conducted. Differences were considered significant when p<0.05.
(§10) Results. […] FIG. 1A-N represents in vivo inhibition of tumor growth during the treatment with GHRH antagonist MIA-602 and selected AVR antagonists in nude mice xenografted with various human tumors including pancreatic cancer PANC-1 (FIG. 1A) and CFPAC-1 (FIG. 1I); lung cancer HCC827 (FIGS. 1B, C) and H460 (FIG. 1H); stomach cancer N87 (FIGS. 1D-F); colon cancer HT-29 (FIG. 1G); breast cancer MX-1 and HCC-1806 (FIGS. 1J, K); ovarian cancer SK-OV-3 and OVACAR-3 (FIGS. 1 L, M) and prostate cancer PC3 (FIG. 1N). See also Table 5.

[3] = system: breast cancer MX-1 xenograft; assay: Xenograft tumor growth in nude mice, MX-1; assay type: in vivo; conditions: Table 4J, Breast Ca MX-1, 4 weeks, 5 μg/day s.c.; for % Inhibition: vs control
Method: as §5, §6, §7, §8, §9, §10

[4] = system: OVCAR-3 ovarian cancer cells; assay: In vitro cell viability, OVCAR-3; assay type: cell-based, human; conditions: Table 3B; * at 2 μM for 72 H; MIA-602 = 1
Method: as §1, §2, §3, §4

[5] = system: lung cancer H460 xenograft; assay: Xenograft tumor growth in nude mice, H460; assay type: in vivo; conditions: Table 4H, Lung Ca H460, 4 weeks, 5 μg/day s.c.
Method: as §5, §6, §7, §8, §9, §10

[6] = system: ovarian cancer OVCAR-3 xenograft; assay: Xenograft tumor growth in nude mice, OVCAR-3; assay type: in vivo; conditions: Table 4M, Ovarian Ca OVCAR-3, 9 weeks; for % Inhibition: vs control
Method: as §5, §6, §7, §8, §9, §10

[7] = system: HCC1806 breast cancer cells; assay: In vitro cell viability, HCC1806; assay type: cell-based, human; conditions: Table 3B; 5 μM for 72 H; MIA-602 = 1
Method: as §1, §2, §3
Inhibitory effects of selected AVR compounds in comparison to that of MIA602 are presented as inhibitory potency (e.g., percentage of inhibition). […] The cell lines tested including lung cancer HCC827 (FIG. 2A), pancreatic cancer CFPAC-1 (FIG. 2B), stomach cancer N87 (FIG. 2C), colon cancer HT-29 (FIG. 2D), breast cancers MX-1 and HCC1806 (FIGS. 2 E, F). Based on the results of cell proliferation assay after cancer cells were treated with antagonist at concentration of 5 μM for 72H, the relative inhibitory potency of AVR antagonists in comparison to MIA-602 is summarized in Table 3 A and B. Over 60 AVR compounds were tested in 12 cancer cell lines.
Based on the results of cell proliferation assay after cancer cells were treated with antagonist at concentration of 5 µM for 72H, * at concentration of 2 µM for 72 H.

Row | Structure (SMILES) | In vitro relative inhibitory potency in comparison to MIA-602, SKOV-3 [1] | Tumor Growth % ([2]; 2.5 μg/day s.c.) | % Inhibition ([2]; 2.5 μg/day s.c.) | Tumor Growth % ([2]; 5 μg/day s.c.) | % Inhibition ([2]; 5 μg/day s.c.) | Tumor Growth % ([2]; 10 μg/day s.c.) | % Inhibition ([2]; 10 μg/day s.c.) | Tumor Growth % [3] | % Inhibition [3] | In vitro relative inhibitory potency in comparison to MIA-602, OVCAR-3 [4] | Tumor Growth % [5] | % Inhibition ([5]; vs control) | Tumor Size (mm3) ([6]; 2.5 μg/day s.c.) | % Inhibition ([6]; 2.5 μg/day s.c.) | Tumor Size (mm3) ([6]; 5 μg/day s.c.) | % Inhibition ([6]; 5 μg/day s.c.) | In vitro relative inhibitory potency in comparison to MIA-602, HCC-1806 [7]
1 | CCCC[C@H](NC(=O)[C@@H](NC(=O)[C@H](CC(=O)O)NC(=O)[C@H](CCC(N)=O)NC(=O)[C@H](CC(C)C)NC(=O)[C@H](CC(C)C)NC(=O)[C@H](CCCCN)NC(=O)[C@H](CCCNC(=N)N)NC(=O)[C@H](C)NC(=O)[C@H](CO)NC(=O)[C@H](CC(C)C)NC(=O)[C@H](CCC(N)=O)NC(=O)[C@H](CC)NC(=O)[C@H](CC(C)C)NC(=O)[C@@H](NC(=O)[C@H](CCCCN)NC(=O)[C@H](CCCNC(=N)N)NC(=O)[C@H](Cc1c(F)c(F)c(F)c(F)c1F)NC(=O)[C@H](CCCCNC(=N)N)NC(=O)[C@H](C)NC(=O)[C@@H](NC(=O)[C@H](Cc1ccc(Cl)cc1)NC(=O)[C@@H](NC(=O)[C@H](C)NC(=O)[C@H](CC(=O)O)NC(=O)[C@@H](CCCNC(=N)N)NC(=O)[C@H](Cc1ccc(O)cc1)NC(=O)CCCCCCCCCCCNC(=O)Cc1c(F)c(F)c(F)c(F)c1F)[C@@H](C)CC)[C@@H](C)O)C(C)C)[C@@H](C)CC)C(=O)N[C@H](CCCNC(=N)N)C(=O)N[C@@H](CCCCNC(=N)N)C(=O)NCCCCCCCCCCCC(N)=O [AVR-353, 5FPhAC-Ada-Tyr-DArg-Asp-Ala-Ile-Cpa-Thr-Ala-Har-5FPhe-Arg-Lys-Val-Leu-Abu-Gln-Leu-Ser-Ala-Arg-Lys-Leu-Leu-Gln-Asp-Ile-Nle-DArg-Har-Ada-NH2] ({Phenylacetyl(2,3,4,5,6-F5)-12Ado}-Y[dR]DAI[Phe(4-Cl)]TA[hArg][Phe(F5)]RKVL[Abu]QLSARKLLQDI[Nle][dR][hArg][12Ado]-NH2) | 1.04* | 1482.8% | 44.5% | 1257.3% | 52.9% | 1005.1% | 62.4% | 774.2% | 30.5% | 1.55* | 1335.0% | 60.5% | 357.0 mm3 | 25.7% | 255.2 mm3 | 46.9% | 9.396
2 | CCCC[C@H](NC(=O)[C@@H](NC(=O)[C@H](CC(=O)O)NC(=O)[C@H](CCC(N)=O)NC(=O)[C@H](CC(C)C)NC(=O)[C@H](CC(C)C)NC(=O)[C@H](CCCCN)NC(=O)[C@H](CCCNC(=N)N)NC(=O)[C@H](C)NC(=O)[C@H](CO)NC(=O)[C@H](CC(C)C)NC(=O)[C@H](CCC(N)=O)NC(=O)[C@H](CC)NC(=O)[C@H](CC(C)C)NC(=O)[C@@H](NC(=O)[C@H](CCCCN)NC(=O)[C@H](CCCNC(=N)N)NC(=O)[C@H](Cc1c(F)c(F)c(F)c(F)c1F)NC(=O)[C@H](CCCCNC(=N)N)NC(=O)[C@H](C)NC(=O)[C@@H](NC(=O)[C@H](Cc1ccc(Cl)cc1)NC(=O)[C@@H](NC(=O)[C@H](C)NC(=O)[C@H](CC(=O)O)NC(=O)[C@@H](CCCNC(=N)N)NC(=O)[C@H](Cc1ccc(O)cc1)NC(=O)CCCCCCCCCCCNC(=O)Cc1c(F)c(F)c(F)c(F)c1F)[C@@H](C)CC)[C@@H](C)O)C(C)C)[C@@H](C)CC)C(=O)N[C@H](CCCNC(=N)N)C(=O)N[C@@H](CCCCNC(=N)N)C(=O)NCCCCCCCCCCCC(=O)NC [AVR-354] ({Phenylacetyl(2,3,4,5,6-F5)-12Ado}-Y[dR]DAI[Phe(4-Cl)]TA[hArg][Phe(F5)]RKVL[Abu]QLSARKLLQDI[Nle][dR][hArg][12Ado]-NHMe) |  |  |  |  |  |  |  | 488.3% | 56.2% |  |  |  |  |  |  |  | 3.991
3 | CCCC[C@H](NC(=O)[C@@H](NC(=O)[C@H](CC(=O)O)NC(=O)[C@H](CCC(N)=O)NC(=O)[C@H](CC(C)C)NC(=O)[C@H](CC(C)C)NC(=O)[C@H](CCCCN)NC(=O)[C@H](CCCNC(=N)N)NC(=O)[C@H](C)NC(=O)[C@H](CO)NC(=O)[C@H](CC(C)C)NC(=O)[C@H](CCC(N)=O)NC(=O)[C@H](CC)NC(=O)[C@H](CC(C)C)NC(=O)[C@@H](NC(=O)[C@H](CCCCN)NC(=O)[C@H](CCCNC(=N)N)NC(=O)[C@H](Cc1ccc(OC)cc1)NC(=O)[C@H](CCCCNC(=N)N)NC(=O)[C@H](CC(N)=O)NC(=O)[C@@H](NC(=O)[C@H](Cc1ccc(Cl)cc1)NC(=O)[C@@H](NC(=O)[C@H](C)NC(=O)[C@H](CC(=O)O)NC(=O)[C@@H](CCCNC(=N)N)NC(=O)[C@H](Cc1ccc(O)cc1)NC(=O)CCCCCCCCCCCNC(=O)Cc1c(F)c(F)c(F)c(F)c1F)[C@@H](C)CC)[C@@H](C)O)C(C)C)[C@@H](C)CC)C(=O)N[C@H](CCCNC(=N)N)C(=O)N[C@@H](CCCCNC(=N)N)C(=O)NCCCCCCCCCCCC(N)=O [AVR-333, 5FPhAC-Ada-Tyr-DArg-Asp-Ala-Ile-Cpa-Thr-Asn-Har-Tyr(Me)-Arg-Lys-Val-Leu-Abu-Gln-Leu-Ser-Ala-Arg-Lys-Leu-Leu-Gln-Asp-Ile-Nle-DArg-Har-Ada-NH2] ({Phenylacetyl(2,3,4,5,6-F5)-12Ado}-Y[dR]DAI[Phe(4-Cl)]TN[hArg]Y(Me)RKVL[Abu]QLSARKLLQDI[Nle][dR][hArg][12Ado]-NH2) |  |  |  | 1384.4% | 48.2% |  |  |  |  |  |  |  |  |  |  |  | 
